According to patent publication US9927437B2, “Treating neurodegenerative disease” (THE BRIGHAM AND WOMEN'S HOSPITAL, INC., priority 2013, dated 2018):
“Also recorded” adds a separate entry of the source.

Legend:
EAE NOD mice = experiment: EAE in NOD mice, progressive phase (clinical score, histopathology, body weight); type: in vivo
Ly6C^high monocytes = experiment: Monocytes migration assay (transwell, CCL-2); type: cell-based, mouse; conditions: 1 h pre-treatment, CCL-2 50 ng/ml, 3 h
From the text: FIGS. 4a-m. B4GALT6 regulates ccl2 transcriptional activity in astrocytes. (a) Murine ccl2 promoter. (b) Luciferase activity in 293T cells transfected with the ccl2 luciferase reporter plus one of the following constructs encoding IRF-1, p65 or an empty control vector (Empty). Results are relative to secreted alkaline phosphatase activity, presented as fold induction from empty vector. Data from three independent experiments, statistical analysis by Student's t-test. (c) ChIP analysis of the interaction of NF-κB, and IRF-1 with the ccl2 promoter in primary cultured astrocytes, pre-treated with PDMP and LacCer and activated with LPS/IFNγ (as in FIG. 3), 2 hours following LPS/IFNγ induction. (d-h) Recruitment of inflammatory monocytes (defined either as of CD11b^+ Ly6C^high or CD11b^+CD45^high cells) to the CNS of EAE NOD mice treated with PDMP or vehicle, as in (FIG. 1k), analyzed by flow cytometry and presented as cell frequency (e, g) and total cell numbers (f, h). Representative data of three independent experiments. […] (i) The frequency and number of CD11b^+ Ly6C^high monocytes as determined in the CNS 10 days after the i.c.v. injection of astrocytes-specific shRNA lentivirus as in (FIG. 3j). […] (j) monocytes were pre-treated for 1 h with PDMP, LacCer, both (LacCer+PDMP), or vehicle, and monocytes chemotaxis was measured using a transwell chamber system. […]

primary mouse microglia = experiment: Response of primary microglia to LPS/IFNγ (nCounter); type: cell-based; conditions: absence of astrocytes, LPS/IFNγ 6 h
From the text: FIGS. 5a-m. B4GALT6 in astrocytes regulates the activation of microglia and CNS-infiltrating monocytes. (a) Heatmap depicting mRNA expression, as determined by nCounter Nanostring analysis, in microglia from naïve or EAE NOD mice treated with PDMP or vehicle. Representative data of three independent experiments. Statistical analysis by Student's t-test. (b) qPCR analysis of ccl5, il1b, opn, nos2, cd40, and H2-Aa gene expression relative to Gapdh. (c, d) Mean normalized expression of genes associated with M1- or M2-phenotype in microglia (Table 3) (c) and Ly6C^high monocytes (d). Statistical analysis by Student's t-test. (e-h) primary microglia were pre-treated with PDMP, LacCer, or vehicle, followed by activation with LPS/IFNγ for 6 h or left un-treated (control) as in (FIG. 3a). mRNA expression was determined by nCounter Nanostring analysis (e, g), and microglial viability was determined (f, h). Representative data of five independent experiments. […] RNA was harvested from microglia treated in the absence [MG (pure)] or presence [MG (mixed)] of astrocytes and gene expression was analyzed by qPCR for the expression ccl2, ccl5 and nos2 relative to gapdh. […] Microglia were isolated as in (i), and microglial-nos2 expression was determined by qRT relative to gapdh and presented as in (i). […]

Compound	disease progression, axonal loss (EAE NOD mice; NOD EAE, 20 mg/kg i.p. twice a day from day 40, lumbar spinal cord, Bielschowsky's silver stain)	disease progression, demyelination (EAE NOD mice; NOD EAE, 20 mg/kg i.p. twice a day from day 40, lumbar spinal cord, Luxol fast blue)	disease progression, clinical score (EAE NOD mice; NOD EAE, 20 mg/kg i.p. twice a day from day 40 after EAE induction)	monocyte migration in a CCL-2 gradient (Ly6C^high monocytes)	response of cultured primary mouse microglia to LPS/IFNγ (primary mouse microglia)	EAE disease clinical symptoms (EAE NOD mice; NOD mice, 10 μg per mouse i.p. every 3 days from day 35 after EAE induction)	EAE disease progression (EAE NOD mice; NOD EAE, i.c.v. 1×10^7 IU lentivirus at day 35)
CCCCCCCCCC(=O)N[C@H](CN1CCOCC1)[C@H](O)c1ccccc1 [PDMP, D-threo-1-phenyl-2-decanoylamino-3-morpholino-1-propanol]	suppression of disease progression	suppression of disease progression	suppression of disease progression	did not affect; also recorded: no significance effect	neither the viability nor the response of cultured primary mouse microglia to LPS/IFNγ was affected	–	–
lactosylceramide [LacCer]	–	–	–	did not affect; also recorded: no significance effect	neither the viability nor the response of cultured primary mouse microglia to LPS/IFNγ was affected	significant worsening of disease clinical symptoms	–
shB4galt6: lentivirus-delivered shRNA against b4galt6 (TRCN0000334278; SEQ ID NO:3) (guide CGATGGACTGAACAATTTATTCTCGAGAATAAATTGTTCAGTCCACG)	–	–	–	–	–	–	suppressed disease progression; also recorded: ameliorates disease severity
